Laboratory results: patent publication US20050112163A1, “PEST CONTROLLER AMD METHOD FOR CONTROLLING PESTS THEREWITH” (priority 2002, published 2005)

Assay: Vapor pressure by Donovan method
Type: physicochemical
Conditions: at 25° C. by Donovan method
Description: Donovan method is a method reported by a person in New method for estimating vapor pressure by the use of gas chromatography: Journal of Chromatography A. 749, pp. 123-129 (1996).
Test pest controllers (a) and (b) were made by the pest controller 1 shown in FIG. 2 with chemical substance 22 containing compound (A) (2,3,5,6-tetrafluoro-4-methoxymethylbenzyl 3-(1-propenyl)-2,2-dimethylcyclopropanecarboxylate, the vapor pressure at 25° C. by Donovan method: 1.4×10^−5 mmHg) as an active ingredient.

CC=CC1C(C(=O)OCc2c(F)c(F)c(COC)c(F)c2F)C1(C)C (stereo not shown) [compound (A), 2,3,5,6-tetrafluoro-4-methoxymethylbenzyl 3-(1-propenyl)-2,2-dimethylcyclopropanecarboxylate]
vapor pressure: 1.4×10^−5 mmHg
